Common to all, as to experiment: growth of human tumour cells (NCI), 48 h
Assay [1] deals with ACHN.
The test system of assay [2] is PC-3.
Assay [3] concerns EKVX.
The subject of assay [4] is A549.
Assay [5] deals with SF-539.
For assay [6], the system named is OVCAR-3.
The subject of assay [7] is SNB-75.
In assay [8] the test system is HT-29.
Assay [9] has as its system MCF7.
Assay [10] deals with A498.
Assay [11] relates to DU-145.
The test system of assay [12] is UO-31.
Assay [13] relates to LOX IMVI.
In assay [14] the test system is SK-MEL-28.
Assay [15] deals with BT-549.
Assay [16] concerns MDA-N.
For assay [17], the system named is OVCAR-4.
In assay [18] the test system is Malme-3M.
In assay [19] the test system is SK-OV-3.
Assay [20] deals with SNB-19.

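Tested at 5 concentrations; 48 h exposure; 96-well plates; endpoints linearly interpolated, else capped at highest concentration. GI50 marks 50% less growth.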 Calls of active or inactive are those of the source. No stated cut-off is given here; in the data, active = GI50 up to about 1.1 µM and inactive = higher. Where only a bound is given, the exact number is not on record here.

`O=C(Nc1nc(C23CC4CC(CC(C4)C2)C3)cs1)c1cc2cc(Br)cc(Br)c2oc1=O`: the GI50 in assay [1] was > 100 µM (inactive); in [2] it was 71.1 µM (inactive); in assay [3], 39.4 µM (inactive); in [4], 53 µM (inactive); in assay [5], 51.8 µM (inactive); in assay [6], 61.4 µM (inactive). For the same molecule, the GI50 in assay [7] is 26.9 µM (inactive); in [8] it was > 100 µM (inactive); in [9] it was > 100 µM (inactive); in assay [10] it was > 100 µM (inactive); in assay [11], 65.5 µM (inactive); in assay [12] it was > 100 µM (inactive). Besides, the GI50 in assay [13] was > 100 µM (inactive); in assay [14], > 100 µM (inactive); in assay [15] it was > 100 µM (inactive); in assay [16], 87.5 µM (inactive); in assay [17], 58.1 µM (inactive); in assay [18] it was > 100 µM (inactive). The GI50 in [19] was > 100 µM (inactive); in [20], 41.8 µM (inactive).

Turning to `O=C(OCC1CCCN2CCCCC12)c1ccncc1` (stereo not given), the GI50 in [1], in assay [2], in [3], in assay [4], in [5] and in assay [6] was > 100 µM (inactive) in each case. Further, the GI50 in assay [7], in assay [8], in [9], in assay [10], in assay [11] and in [12] was > 100 µM (inactive) throughout. Further, the GI50 in assay [13], in [14], in assay [15], in assay [16], in assay [17] and in assay [18] was > 100 µM (inactive) in each case. Moreover, the GI50 in assay [19] and in assay [20] was > 100 µM (inactive) in each case.

As for `O=c1n(-c2ccc(Cl)c(Cl)c2)c(=O)n(-c2ccc(Cl)c(Cl)c2)c(=O)n1-c1ccc(Cl)c(Cl)c1`, the GI50 in [1] is 2.39 µM (inactive); in assay [2] it was 0.703 µM (active); in assay [3] it was 3.5 µM (inactive); in assay [4], 2.09 µM (inactive); in [5], 0.769 µM (active); in [6], 2.99 µM (inactive). Also, the GI50 is 2.53 µM (inactive) in [7]; 2.59 µM (inactive) in [8]; 1.82 µM (inactive) in assay [9]; 2.73 µM (inactive) in assay [10]; 4.01 µM (inactive) in assay [11]; 2.76 µM (inactive) in [12]. Also, the GI50 is 2.55 µM (inactive) in assay [13]; 4.16 µM (inactive) in [14]; 2.88 µM (inactive) in assay [15]; 2.9 µM (inactive) in assay [16]; 3.94 µM (inactive) in assay [17]; 3.3 µM (inactive) in assay [18]. Further, the GI50 in assay [19] is 2.11 µM (inactive); in [20], 5.01 µM (inactive).

Regarding `CCNc1nc(N)c(C(=O)c2cccs2)s1`, the GI50 in [1] is 22.3 µM (inactive); in [2], 31.5 µM (inactive); in [3], 26.2 µM (inactive); in [4], 29.8 µM (inactive); in [5], 15.5 µM (inactive); in assay [6], 22 µM (inactive). In addition, the GI50 was 10.4 µM (inactive) in assay [7]; 17.2 µM (inactive) in assay [8]; 22 µM (inactive) in assay [9]; 31 µM (inactive) in [10]; 8.99 µM (inactive) in [11]; 38 µM (inactive) in assay [12]. Moreover, the GI50 is 18.4 µM (inactive) in assay [13]; 31 µM (inactive) in [14]; 20.8 µM (inactive) in assay [15]; 25.6 µM (inactive) in assay [16]; 21.1 µM (inactive) in assay [17]; 43.3 µM (inactive) in assay [18]. For the same molecule, the GI50 was 36.4 µM (inactive) in assay [19] and 40.7 µM (inactive) in assay [20].

Regarding `C/C(=N\NC(N)=S)c1ccccn1.OB(O)c1ccccc1`, the GI50 in assay [1] was 2.04 µM (inactive); in assay [2] it was 4.15 µM (inactive); in assay [3], 4.69 µM (inactive); in assay [4], 5.51 µM (inactive); in assay [5], 3.6 µM (inactive); in [6] it was 2.62 µM (inactive). Further, the GI50 in assay [7] was 12.9 µM (inactive); in assay [8], 6.47 µM (inactive); in assay [9], 4.55 µM (inactive); in assay [10], 5.89 µM (inactive); in assay [11] it was 3.3 µM (inactive); in assay [12], 2.39 µM (inactive). The GI50 was 2.58 µM (inactive) in assay [13]; 9.23 µM (inactive) in assay [14]; 8.15 µM (inactive) in [15]; 7.53 µM (inactive) in assay [16]; 4.25 µM (inactive) in assay [17]; 8.63 µM (inactive) in assay [18]. The GI50 is 5.57 µM (inactive) in assay [19] and 10.5 µM (inactive) in [20].
